Columns and labels:
Liver GK = target: T1, Liver GK (Homo sapiens, UniProt P35557); experiment: Glucokinase enzyme assay, liver GK; assay type: biochemical; settings: for EC50: concentration that produces 50% activation above the vehicle control; for EC100%: concentration that produces 100% activation above the vehicle control; for activation at 50 µM: percentage increase in GK activity above vehicle control, compound 50 μM, 12 mM glucose
T1 construct: (His)6; made in house; host or cells: Escherichia coli
T1 sequence (P35557 1-466 isoform P35557-2): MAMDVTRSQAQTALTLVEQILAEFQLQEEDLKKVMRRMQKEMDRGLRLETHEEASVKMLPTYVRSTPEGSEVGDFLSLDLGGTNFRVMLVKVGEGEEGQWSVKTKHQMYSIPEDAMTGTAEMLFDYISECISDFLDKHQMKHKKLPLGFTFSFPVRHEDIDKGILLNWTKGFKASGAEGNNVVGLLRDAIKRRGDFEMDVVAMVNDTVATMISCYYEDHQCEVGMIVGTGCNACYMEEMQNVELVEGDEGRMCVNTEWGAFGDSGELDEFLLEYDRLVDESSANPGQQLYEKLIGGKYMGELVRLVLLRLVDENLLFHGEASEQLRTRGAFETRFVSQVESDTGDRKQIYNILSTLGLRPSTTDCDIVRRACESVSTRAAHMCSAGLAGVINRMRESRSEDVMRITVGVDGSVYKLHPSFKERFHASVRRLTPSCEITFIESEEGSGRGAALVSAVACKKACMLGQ
Excerpt: (§1) An enzymatic Glucokinase (GK) assay using purified recombinant human liver/pancreas enzyme was used to evaluate the effects of potential small molecule modulators.
(§2) In this assay, GK catalyzes glucose phosphorylation in the presence of ATP. The product of this reaction, glucose-6-phosphate, was then oxidized by an excess of glucose-6-phosphate dehydrogenase to produce gluconate-6-phosphate with concomitant reduction of nicotinamide adenine dinucleotide (NAD). […] Human GK (Liver/Pancreas) was expressed in Escherichia coli as a (His) 6-tagged fusion protein and was purified by metal chelate affinity chromatography. The assay was performed in a final incubation volume of 80 μl in a 96-well clear low UV absorption plates. The incubation mixture consisted of 25 mM HEPES, 2 mM MgSO4, 1 mM dithiothreotol (DTT), 1 mg/mL bovine serum albumin (BSA), 1 mM ATP, 1 mM NAD, and 12 mM glucose, 10 units per mL glucose-6-phosphate dehydrogenase, and +/−300 ng per mL GK. For determination of the affinity (Km) and Vmax, different concentrations of glucose ranging from 0.5 mM to 40 mM were used in the assay; see Grimsby, J., Sarabu, R.; Grippo, J. F.; et. al. Science 2003, 301, 370-373. Production of reduced NAD (Nicotinamide Adenine Dinucleotide) was measured as changes in absorption at 340 nm in 96-well plate reader (Envision model #2101 Multilabel Plate reader). % Activation @ 50 μM was calculated as the percentage increase in GK activity above the vehicle control with the effective concentration of the compound being 50 μM. EC50% (μM) was calculated as the effective concentration of the compound that produces 50% activation above the vehicle control, and EC100% (μM) was calculated as the effective concentration of the compound that produces 100% activation above the vehicle control.

Pancreas GK = target: T2, Pancreas GK (Homo sapiens, UniProt P35557); experiment: Glucokinase enzyme assay, pancreas GK; assay type: biochemical; settings: for EC50: concentration that produces 50% activation above the vehicle control; for EC100%: concentration that produces 100% activation above the vehicle control; for activation at 50 µM: percentage increase in GK activity above vehicle control, compound 50 μM, 12 mM glucose
T2 construct: (His)6; made in house; host or cells: Escherichia coli
T2 sequence (P35557 1-465): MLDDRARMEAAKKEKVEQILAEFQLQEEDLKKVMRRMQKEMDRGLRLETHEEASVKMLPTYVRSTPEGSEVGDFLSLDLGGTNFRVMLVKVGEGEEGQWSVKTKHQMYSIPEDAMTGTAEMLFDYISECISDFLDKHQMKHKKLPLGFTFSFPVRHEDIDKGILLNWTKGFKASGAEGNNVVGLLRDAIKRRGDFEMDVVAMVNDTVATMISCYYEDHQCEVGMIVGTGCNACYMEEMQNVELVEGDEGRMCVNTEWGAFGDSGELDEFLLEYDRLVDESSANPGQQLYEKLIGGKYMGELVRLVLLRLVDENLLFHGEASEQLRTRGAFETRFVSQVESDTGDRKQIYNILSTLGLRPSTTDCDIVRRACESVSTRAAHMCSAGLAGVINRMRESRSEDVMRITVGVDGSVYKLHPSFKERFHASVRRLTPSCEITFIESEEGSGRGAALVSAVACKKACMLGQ
Excerpt: as §1, §2

| SMILES | EC50 (Liver GK) [µM] | EC100% (Liver GK) [µM] | EC50 (Pancreas GK) [µM] | EC100% (Pancreas GK) [µM] | activation at 50 µM (Liver GK) [%] | activation at 50 µM (Pancreas GK) [%] |
| --- | --- | --- | --- | --- | --- | --- |
| COc1ccc(CN2C(=O)C=C(C)C2SCC(=O)Nc2ccccn2)cc1 (stereo not drawn) [Compound 19, 2-[1-(4-Methoxy-benzyl)-3-methyl-5-oxo-2,5-dihydro-1H-pyrrol-2-ylsulfanyl]-N-pyridin-2-yl-acetamide] | 13.8 | 30.5 | 15.2 | 47.3 | – | – |
| CC1=C(C)C(SCC(=O)Nc2ccccn2)N(Cc2ccc3c(c2)CCO3)C1=O (stereo not drawn) [Compound 20, 2-[1-(2,3-Dihydro-benzofuran-5-ylmethyl)-3,4-dimethyl-5-oxo-2,5-dihydro-1H-pyrrol-2-ylsulfanyl]-N-pyridin-2-yl-acetamide] | 2.78 | 6.61 | 3.23 | 8.87 | – | – |
| COc1ccc(CN2C(=O)C(C)=C(C)C2SCC(=O)Nc2cc(C)ccn2)cc1 (stereo not drawn) [Compound 21, 2-[1-(4-Methoxy-benzyl)-3,4-dimethyl-5-oxo-2,5-dihydro-1H-pyrrol-2-ylsulfanyl]-N-(4-methyl-pyridin-2-yl)-acetamide] | 4.73 | 12.68 | 7.12 | 19.43 | – | – |
| CCc1ccnc(NC(=O)CSC2C(C)=C(C)C(=O)N2Cc2ccc(OC)cc2)c1 (stereo not drawn) [Compound 22, N-(4-Ethyl-pyridin-2-yl)-2-[1-(4-methoxy-benzyl)-3,4-dimethyl-5-oxo-2,5-dihydro-1H-pyrrol-2-ylsulfanyl]-acetamide] | 17.3 | – | 24.1 | – | 82 | 70 |
| COc1ccc(CN2C(=O)C(C)=C(C)C2SCC(=O)Nc2cccc(C)n2)cc1 (stereo not drawn) [Compound 23, 2-[1-(4-Methoxy-benzyl)-3,4-dimethyl-5-oxo-2,5-dihydro-1H-pyrrol-2-ylsulfanyl]-N-(6-methyl-pyridin-2-yl)-acetamide] | 6.23 | 13.78 | 8.13 | 20.28 | – | – |
| CC1=C(C)C(SCC(=O)Nc2ccccn2)N(Cc2cccs2)C1=O (stereo not drawn) [Compound 24, 2-(3,4-Dimethyl-5-oxo-1-thiophen-2-ylmethyl-2,5-dihydro-1H-pyrrol-2-ylsulfanyl)-N-pyridin-2-yl-acetamide] | 8.4 | 26.7 | 13.6 | 37.3 | 172 | 124 |
| CC1=C(C)C(SCC(=O)Nc2ccccn2)N(Cc2ccc(C(C)C)cc2)C1=O (stereo not drawn) [Compound 25, 2-[1-(4-Isopropyl-benzyl)-3,4-dimethyl-5-oxo-2,5-dihydro-1H-pyrrol-2-ylsulfanyl]-N-pyridin-2-yl-acetamide] | 6.3 | 28.5 | 14.7 | 44.9 | 180 | 130 |
| CCc1ccc(CN2C(=O)C(C)=C(C)C2SCC(=O)Nc2ccccn2)cc1 (stereo not drawn) [Compound 26, 2-[1-(4-Ethyl-benzyl)-3,4-dimethyl-5-oxo-2,5-dihydro-1H-pyrrol-2-ylsulfanyl]-N-pyridin-2-yl-acetamide] | 15.3 | 35.9 | 24 | – | 154 | 102 |

Other lines, results leading:

| EC50 (Liver GK) [µM] | EC100% (Liver GK) [µM] | EC50 (Pancreas GK) [µM] | EC100% (Pancreas GK) [µM] | activation at 50 µM (Liver GK) [%] | activation at 50 µM (Pancreas GK) [%] | SMILES |
| --- | --- | --- | --- | --- | --- | --- |
| 14.1 | >50 | 20 | >50 | 90 | – | COC(=O)c1ccc(NC(=O)COC2C(C)=C(C)C(=O)N2Cc2ccc(OC)cc2)nc1 (stereo not drawn) [Compound 27, 6-{2-[1-(4-Methoxy-benzyl)-3,4-dimethyl-5-oxo-2,5-dihydro-1H-pyrrol-2-yloxy]-acetylamino}-nicotinic acid methyl ester] |
| 14.2 | >50 | 18.5 | >50 | 90 | – | COc1ccc(CN2C(=O)C(C)=C(C)C2OCC(=O)Nc2ccc(C)cn2)cc1 (stereo not drawn) [Compound 28, 2-[1-(4-Methoxy-benzyl)-3,4-dimethyl-5-oxo-2,5-dihydro-1H-pyrrol-2-yloxy]-N-(5-methyl-pyridin-2-yl)-acetamide] |
| 7.7 | 26.1 | 11.8 | 41.4 | – | – | COc1cc(CN2C(=O)C(C)=C(C)C2SCC(=O)Nc2ccccn2)cc(OC)c1 (stereo not drawn) [Compound 29, 2-[1-(3,5-Dimethoxy-benzyl)-3,4-dimethyl-5-oxo-2,5-dihydro-1H-pyrrol-2-ylsulfanyl]-N-pyridin-2-yl-acetamide] |
| 34.5 | >50 | > 50 | >50 | – | – | COc1ccc(CN2C(=O)C(C)=C(C)C2OCC(=O)Nc2ccccn2)cc1 (stereo not drawn) [Compound 30, 2-[1-(4-Methoxy-benzyl)-3,4-dimethyl-5-oxo-2,5-dihydro-1H-pyrrol-2-yloxy]-N-pyridin-2-yl-acetamide] |
| – | – | – | – | 21 | 3 | COc1ccc(CN2C(=O)C(C)=C(C)C2OCC(=O)Nc2nccs2)cc1 (stereo not drawn) [Compound 31, 2-[1-(4-Methoxy-benzyl)-3,4-dimethyl-5-oxo-2,5-dihydro-1H-pyrrol-2-yloxy]-N-thiazol-2-yl-acetamide] |

Source: patent US8680122B2, “Substituted pyrrolones as allosteric modulators of glucokinase” (Janssen Pharmacetica N.V., priority 2005, dated 2014)
